In patent US9850216B2 (H. LEE MOFFITT CANCER CENTER AND RESEARCH INSTITUTE, INC., priority 2013, dated 2017):
Values joined by “and” are separate entries in the source; they are usually repeats but may differ in a detail not shown here. Equal entries are not always repeated. Structures can show the parent of a compound that is named as a salt. Where two headings read alike, the source gives them in different places.

How the values were obtained:
[1] = biological target: T1, ACK1 (Homo sapiens, UniProt Q07912); assay: 32P Hotspot assay (Reaction Biology), ACK1 IC50; assay type: biochemical
T1 sequence (Q07912 whole entry): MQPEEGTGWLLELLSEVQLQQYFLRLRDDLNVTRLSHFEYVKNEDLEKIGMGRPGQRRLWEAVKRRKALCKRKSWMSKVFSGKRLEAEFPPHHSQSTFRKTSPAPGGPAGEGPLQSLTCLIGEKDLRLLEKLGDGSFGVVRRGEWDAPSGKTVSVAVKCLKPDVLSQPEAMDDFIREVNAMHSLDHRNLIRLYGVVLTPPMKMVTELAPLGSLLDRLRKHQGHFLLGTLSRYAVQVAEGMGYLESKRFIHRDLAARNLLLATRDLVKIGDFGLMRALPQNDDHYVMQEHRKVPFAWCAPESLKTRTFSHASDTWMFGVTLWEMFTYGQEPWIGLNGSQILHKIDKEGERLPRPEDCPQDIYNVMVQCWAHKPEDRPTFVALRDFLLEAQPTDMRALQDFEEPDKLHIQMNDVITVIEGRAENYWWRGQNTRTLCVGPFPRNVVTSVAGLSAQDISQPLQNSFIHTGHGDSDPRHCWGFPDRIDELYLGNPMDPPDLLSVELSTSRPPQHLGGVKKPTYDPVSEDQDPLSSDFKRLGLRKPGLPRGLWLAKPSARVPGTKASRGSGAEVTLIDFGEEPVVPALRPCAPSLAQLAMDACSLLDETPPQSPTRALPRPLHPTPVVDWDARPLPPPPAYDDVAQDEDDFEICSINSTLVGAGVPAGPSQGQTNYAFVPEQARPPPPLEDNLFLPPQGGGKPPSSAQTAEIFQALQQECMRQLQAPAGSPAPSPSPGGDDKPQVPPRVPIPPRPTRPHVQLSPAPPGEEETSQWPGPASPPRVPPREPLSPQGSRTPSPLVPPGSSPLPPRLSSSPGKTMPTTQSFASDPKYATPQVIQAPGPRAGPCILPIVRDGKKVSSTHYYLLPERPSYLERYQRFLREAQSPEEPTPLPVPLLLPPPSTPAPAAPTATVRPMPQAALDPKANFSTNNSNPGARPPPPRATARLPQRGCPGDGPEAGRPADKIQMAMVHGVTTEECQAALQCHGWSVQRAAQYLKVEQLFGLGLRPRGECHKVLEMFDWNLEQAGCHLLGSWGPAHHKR
Method: 8 compounds were tested against […], ACK1, Src and ALK in various combinations. […] Reactions were carried out at 10 μM ATP.

[2] = biological target: T1, ACK1; assay: ACK1 ELISA: phosphorylation of AKT-derived peptide; assay type: biochemical
[3] = system: AR; assay: AR protein levels in androgen-deprived prostate cancer cells, immunoblotting; assay type: cell-based, human; conditions: immunoblotting (FIG. 2)
Method: Transcriptional regulation of the AR gene itself is a paradigm that merits thorough investigation. […] Whether AR utilizes ACK1 to facilitate its transcriptional co-activator function is not known. […] Cells were also treated with ACK1-specific small molecule inhibitors, DZ1-067 or AIM-100.

[4] = system: AR; assay: AR mRNA by real time PCR in androgen-deprived prostate cancer cells; assay type: cell-based, human; conditions: overnight treatment (FIG. 3a, b)
Excerpt: Total RNA was isolated followed by qPCR with AR primers. VCaP, *p=0.022; LNCaP, *p=0.042, **p=0.047. […] Total RNA was isolated followed by qPCR with PSA primers.

[5] = system: LAPC4 cells; assay: Cell growth, LAPC4; assay type: cell-based, human
Excerpt: Selected compounds from the library 9 were chosen to evaluate the effects of ACK1 inhibition in LAPC4 human prostate cancer cells with inhibition of cell growth as a read out. […] Based on the findings from cell culture data, enantiomers of 9b were synthesized to understand the ACK1 inhibitory activities of individual stereoisomers. […] The synthesis of (R)-9b and (S)-9b are shown in the Scheme 4 and other examples of enantiomerically pure compounds (not reported here) were also synthesized using the protocols in the Scheme 4.
Three distinct human prostate cancer derived cell lines, LNCaP, LAPC4 and VCaP were either DMSO treated or treated with 1, 2.5, 5, 7.5 and 10 μM of inhibitors, AIM-100, (R)-9b and (S)-9b for 36 hrs and the number of viable cells were counted by trypan blue exclusion assay.

[6] = Table 4, 10-dose, 10 μM ATP, read-out: Compound IC50 (M), ACK1
[7] = 10 μM, Table 1, replicate values listed
[8] = 10 μM, Table 1, replicate values listed, read-out: % Inhibition at 10 μM (ELISA)
[9] = Table 1, unit inferred, (RB) = Reaction Biology, replicates listed, read-out: IC50
[10] = 32P hotspot / enzymatic assay, read-out: ACK1 IC50
[11] = 10 μM, Table 2, library 9, read-out: % Inhibition @ 10 μM (ELISA)
[12] = Table 1, nM, (RB) = Reaction Biology, replicates listed, read-out: IC50
[13] = 10 μM, Table 1, replicate values listed, hydrochloride
[14] = Table 3, 10-dose, 3-fold dilution from 10 μM, 10 μM ATP, read-out: Compound IC50* (M): ACK1
[15] = Table 2, read-out: IC50 (32P Hotspot assay)

CN1CCN(c2ccc(Nc3ncc(Cl)c(NCC4CCCO4)n3)cc2)CC1 (stereo not drawn) [MH1-022-5, 5-chloro-N2-(4-(4-methylpiperazin-1-yl)phenyl)-N4-((tetrahydrofuran-2-yl)methyl)pyrimidine-2,4-diamine]
IC50 [1, 6]: 5.44e-08 M
% Inhibition at 10 μM (ELISA) [2, 7]: 91%
inhibition at 10 µM [2, 8]: 90%

CCCS(=O)(=O)Nc1ccc(F)c(C(=O)c2c[nH]c3ncc(-c4ccc(Cl)cc4)cc23)c1F [PLX4032]
AR protein levels [3]: little effect on AR expression
AR mRNA levels [4]: no significant change

O=C(O)C1CCN(c2ccc(Nc3ncc(Cl)c(NC[C@@H]4CCCO4)n3)cc2)CC1 [DZ1-082, (S)-1-(4-(5-chloro-4-((tetrahydrofuran-2-yl)methylamino)pyrimidin-2-ylamino)phenyl)piperidine-4-carboxylic acid]
IC50 [1, 9]: 5.47e-08 M
% Inhibition at 10 μM (ELISA) [2, 7]: 94%
inhibition at 10 µM [2, 8]: 92%

O=C(Nc1c(F)cccc1Cl)c1cnc(Nc2ccc(N3CCNCC3)cc2)nc1NCC1CCCO1 (stereo not drawn) [YL9-162, N-(2-chloro-6-fluorophenyl)-2-(4-(piperazin-1-yl)phenylamino)-4-((tetrahydrofuran-2-yl)methylamino)pyrimidine-5-carboxamide TFA salt]
IC50 [1, 9]: 3.32e-08 M
% Inhibition at 10 μM (ELISA) ([2]; 10 μM, Table 1, replicate values listed, TFA salt): 88%
inhibition at 10 µM ([2]; read-out: % Inhibition at 10 μM (ELISA), 10 μM, Table 1, replicate values listed): 91%

CN1CCN(c2ccc(Nc3ncc(Br)c(NCC4CCCO4)n3)cc2)CC1 (stereo not drawn) [DZ1-122, 5-bromo-N2-(4-(4-methylpiperazin-1-yl)phenyl)-N4-((tetrahydrofuran-2-yl)methyl)pyrimidine-2,4-diamine]
IC50 [1, 9]: 4.8e-08 M
% Inhibition at 10 μM (ELISA) [2, 7]: 91%
inhibition at 10 µM [2, 8]: 95%

Cl.O=C(Nc1c(F)cccc1Cl)c1cnc(Nc2ccc(C3CCNCC3)cc2)nc1NCC1CCCO1 (stereo not drawn) [DZ1-089, N-(2-chloro-6-fluorophenyl)-2-(4-(piperidin-4-yl)phenylamino)-4-((tetrahydrofuran-2-yl)methylamino)pyrimidine-5-carboxamide]
IC50 [1, 9]: 5.33e-08 M
% Inhibition at 10 μM (ELISA) [2, 7]: 97, 97%

Clc1cnc(Nc2ccc(C3CCNCC3)cc2)nc1NCC1CCCO1 (stereo not drawn) [Compound 9f]
IC50 [1, 10]: 2.31e-07 M
inhibition at 10 µM [2, 11]: 79.5 ± 0.7%

O=C(O)C1CCN(c2ccc(Nc3ncc(Cl)c(NCC4CCCO4)n3)cc2)CC1 (stereo not drawn) [Compound 9e]
IC50 [1, 10]: 8.5e-08 M
inhibition at 10 µM [2, 11]: 93 ± 5.1%

CCOC(=O)C1CCN(c2ccc(Nc3ncc(Cl)c(NCC4CCCO4)n3)cc2)CC1.Cl (stereo not drawn) [YL8-047, Ethyl 1-(4-(5-chloro-4-((tetrahydrofuran-2-yl)methylamino)pyrimidin-2-ylamino)phenyl)piperidine-4-carboxylate hydrochloride]
IC50 [1, 12]: 1.08e-07 M
% Inhibition at 10 μM (ELISA) [2, 13]: 67% and 69%
inhibition at 10 µM [2, 8]: 65%

O=C(Nc1c(F)cccc1Cl)c1cnc(Nc2ccc(O)cc2)nc1NCC1CCCO1 (stereo not drawn) [YL7-104-2, N-(2-chloro-6-fluorophenyl)-2-(4-hydroxyphenylamino)-4-((tetrahydrofuran-2-yl)methylamino)pyrimidine-5-carboxamide]
IC50 [1, 12]: 5.44e-08 M
% Inhibition at 10 μM (ELISA) [2, 7]: 76%
inhibition at 10 µM [2, 8]: 85%

Cl.Oc1ccc(Nc2ncc(Br)c(NCC3CCCO3)n2)cc1 (stereo not drawn) [SK1-028, 4-(5-Bromo-4-((tetrahydrofuran-2-yl)methylamino)pyrimidin-2-ylamino)phenol hydrochloride]
IC50 [1, 14]: 1.64e-07 M
% Inhibition at 10 μM (ELISA) [2, 13]: 59% and 81% and 85% and 65% and 67%

Cl.Oc1ccc(Nc2ncc(Br)c(NCC3CCCO3)n2)cc1F (stereo not drawn) [SK1-044, 4-(5-bromo-4-((tetrahydrofuran-2-yl)methylamino)pyrimidin-2-ylamino)-2-fluorophenol]
IC50 [1, 12]: 2.99e-07 M
% Inhibition at 10 μM (ELISA) [2, 7]: 89% and 63% and 28% and 38%

Cl.O=C(Nc1c(F)cccc1Cl)c1cnc(Nc2ccc(N3CCC(C(=O)O)CC3)cc2)nc1NCC1CCCO1 (stereo not drawn) [DZ1-096]
IC50 [1, 9]: 3.63e-08 M and 3.22e-08 M
IC50 [1, 6]: 3.22e-08 M
% Inhibition at 10 μM (ELISA) [2, 7]: 98, 98%
inhibition at 10 µM [2, 8]: 98%

CN1CCN(c2ccc(Nc3ncc(C(=O)Nc4c(F)cccc4Cl)c(NCC4CCCO4)n3)cc2)CC1 (stereo not drawn) [DZ1-114, N-(2-chloro-6-fluorophenyl)-2-(4-(4-methylpiperazin-1-yl)phenylamino)-4-((tetrahydrofuran-2-yl)methylamino)pyrimidine-5-carboxamide]
IC50 [1, 14]: 4.83e-08 M
% Inhibition at 10 μM (ELISA) [2, 7]: 95%
inhibition at 10 µM [2, 8]: 99%

O=C(O)C1CCN(c2ccc(Nc3ncc(Cl)c(NC[C@H]4CCCO4)n3)cc2)CC1 [DZ1-072, (R)-1-(4-(5-chloro-4-((tetrahydrofuran-2-yl)methylamino)pyrimidin-2-ylamino)phenyl)piperidine-4-carboxylic acid]
IC50 [1, 9]: 9.16e-08 M
% Inhibition at 10 μM (ELISA) [2, 7]: 95%
inhibition at 10 µM [2, 8]: 96%

O=C(Nc1c(F)cccc1Cl)c1cnc(Nc2ccc(N3CCC(C(=O)O)CC3)cc2)nc1NCC1CCCO1 (stereo not drawn) [Compound 9s]
IC50 [1, 10]: 3.4e-08 M and 3.2e-08 M
IC50 [1, 15]: 3.42e-08 M
inhibition at 10 µM [2, 11]: 98%

O=C(O)CCC(=O)N1CCN(c2ccc(Nc3ncc(C(=O)Nc4c(F)cccc4Cl)c(NCC4CCCO4)n3)cc2)CC1 (stereo not drawn) [YL9-163, 4-(4-(4-(5-(2-Chloro-6-fluorophenylcarbamoyl)-4-((tetrahydrofuran-2-yl)methylamino)pyrimidin-2-ylamino)phenyl)piperazin-1-yl)-4-oxobutanoic acid]
IC50 [1, 14]: 2.84e-08 M
% Inhibition at 10 μM (ELISA) [2, 7]: 93%
inhibition at 10 µM [2, 8]: 85%

Cc1cc(Nc2ncc(Br)c(NCC3CCCO3)n2)ccc1O.Cl (stereo not drawn) [SK1-040, 4-(5-bromo-4-((tetrahydrofuran-2-yl)methylamino)pyrimidin-2-ylamino)-2-methylphenol]
IC50 [1, 12]: 9.95e-08 M
% Inhibition at 10 μM (ELISA) [2, 7]: 90% and 61% and 56% and 57%

O=C(Nc1c(F)cccc1Cl)c1cnc(Nc2ccc(N3CCOCC3)cc2)nc1NCC1CCCO1 (stereo not drawn) [Compound 9n]
IC50 [1, 15]: 4.77e-08 M
inhibition at 10 µM [2, 11]: 82 ± 7.7%
cellular potency, ACK1 inhibition in LAPC4 cells with cell growth as read out [5]: did not display the expected cellular potency

Brc1cnc(Nc2ccc(C3CCNCC3)cc2)nc1NCC1CCCO1 (stereo not drawn) [Compound 9k]
IC50 [1, 15]: 1.69e-07 M
inhibition at 10 µM [2, 11]: 84.5 ± 0.7%

Oc1ccc(Nc2ncc(Cl)c(NCC3CCCO3)n2)cc1 (stereo not drawn) [DZ1-120, 4-(5-chloro-4-((tetrahydrofuran-2-yl)methylamino)pyrimidin-2-ylamino)phenol]
IC50 [1, 9]: 1.63e-07 M
IC50 [1, 14]: 1.63e-07 M
% Inhibition at 10 μM (ELISA) [2, 7]: 58%
inhibition at 10 µM [2, 8]: 73%

O=C(Nc1c(F)cccc1Cl)c1cnc(Nc2ccc(N3CCNCC3)cc2)nc1NCC1CCCO1 (stereo not drawn) [Compound 9m]
inhibition at 10 µM ([2]; read-out: % Inhibition @ 10 μM (ELISA), 10 μM, Table 2, library 9): 89.5 ± 2.1%
cellular potency, ACK1 inhibition in LAPC4 cells with cell growth as read out [5]: did not display the expected cellular potency

Brc1cnc(Nc2ccc(N3CCOCC3)cc2)nc1NCC1CCCO1.Cl (stereo not drawn) [DZ1-091, 5-bromo-N2-(4-morpholinophenyl)-N4-((tetrahydrofuran-2-yl)methyl)pyrimidine-2,4-diamine]
IC50 [1, 9]: 1.06e-07 M
% Inhibition at 10 μM (ELISA) [2, 7]: 90%
inhibition at 10 µM [2, 8]: 88%

Clc1cnc(Nc2ccc(N3CCNCC3)cc2)nc1NCC1CCCO1 (stereo not drawn) [Compound 9a]
IC50 [1, 10]: 8.1e-08 M
% Inhibition @ 10 μM (ELISA) ([2]; 10 μM, Table 2, library 9): 82 ± 12.7%

CN1CCN(c2ccc(Nc3ncc(Cl)c(NCC4CCCO4)n3)cc2)CC1 (stereo not drawn) [Compound 9b]
inhibition at 10 µM [2, 11]: 90.5 ± 0.7%
cellular potency, ACK1 inhibition in LAPC4 cells with cell growth as read out [5]: promising ACK1 inhibitory activities in cellular assays
